Experimental data: patent US8729053B2, “Nuclear factor kappa B pathway inhibitor composition and use of same” (The United States of America, as represented by the …, priority 2008, dated 2014)
Structures can show the parent of a compound that is named as a salt.

Tests used:
Format in all cases: cell-based
ERK 1/2 (p42/44) = assay: Immunoblot of TPA-induced ERK 1/2 phosphorylation; settings: 17.0 μM and 8.5 μM pretreatment
Protocol: (§1) To measure endogenous level of several proteins in response to TPA induction and compound I, HEK293 cells were lysed with RIPA buffer (10 mM Tris-HCl pH 7.5, 1 mM EDTA, 0.1% sodium dodecyl sulfate, 0.1% deoxycholate, and protease inhibitor). Whole cell extracts were subjected to immunoblot analysis with the following antibodies: p65 (F-6), p50 (E-10), p52 (C-5), RelB (C-19), IκBα (C-21), PCNA (F-2) were obtained from Santa Cruz Biotechnology (Santa Cruz, Calif.). IKKα, IKKβ, IKKγ, phospho-IκBα, phospho-IKKα/β, phospho-IKKγ, pohospho-Stat3 (Tyr 705 and Ser 727), phospho-p65 (Ser536 and Ser276), phospho-p44/42, phospho-JNKs were purchased from Cell Signaling (Danvers, Mass.), and α-tubulin from Sigma (St. Louis, Mo.). Nuclear and cytoplasmic extracts were prepared with HEK293 cells by NE-PER Nuclear and Cytoplasmic Extraction Reagents (Pierce Biotechnology, Rockford, Ill.) according to the manufacturer's protocol.
(§2) The selectivity of compound I was evaluated by measuring phosphorylation of proteins involved in the AP-1 induction pathway. AP-1 dependent transcription can be activated by MAP Kinases JNK, ERK 1/2 (p44/42). […] At these concentrations compound I, in contrast, completely repressed major regulators in the NFκB activation pathway. JNKs are activated by a variety of environmental stresses responsible for AP-1 activation through c-Jun phosphorylation. […]

JNK = assay: Immunoblot of TPA-induced JNK phosphorylation; settings: 17.0 μM and 8.5 μM pretreatment
Protocol: as §1, §2

[1] = tested on: SRE (Serum response element); assay: SRE luciferase reporter assay in HEK293 cells; settings: HEK293, TPA 10 ng/ml 18 hours
Protocol: All expression plasmids were transiently transfected into HEK293 cells in a 96-well plate (0.1 μg/well) by using Effectene transfection reagent (Qiagen, Valencia, Calif.) according to the manufacturer's manual. HEK293 cells were maintained in Dulbecco's modified Eagle medium (Sigma, St. Louis, Mo.) supplemented with 10% fetal bovine serum (Atlanta Biologicals, Lawrenceville, Ga.) and incubated at 37° C. in a 5% CO2 incubator. After 24 hrs incubation, the medium was changed to DMEM with 0.2% FBS, and the transfectants were exposed to various concentrations of compound I and TPA (10 ng/ml). Cells were lysed with passive lysis buffer and the luciferase assay was performed using the Firefly-Luciferase reporter assay system (Promega, Madison, Wis.) and MLX Luminometer (Dynex Technology, Chantilly, Va.).
Three different luciferase reporter genes, AP-1 reporter containing four times TRE consensus originated from GCN4 and SRE reporter purchased from Stratagene (La Jolla, Calif.) respectively are as described previously (Suzukawa et al., Environ. Health Perspect., 2002, 110, 865-70). NFκB reporter is driven by five times NFκB responsive element inserted into Cis-reporter backbone (Stratagene, La Jolla, Calif.). […]

Question: `Cc1cc(N)ccc1N=Nc1ccc(S(=O)(=O)CCOS(=O)(=O)O)cc1` [compound I, 2-(4-((4-amino-2-methylphenyl)diazenyl)phenylsulfonyl)ethyl hydrogen sulfate] was tested. Which “TPA-induced phosphorylation of endogenous ERK 1/2 (p42/44)” value (ERK 1/2 (p42/44)) did it give?
Answer: no repression

Question: And the “TPA-induced phosphorylation of endogenous JNK” value (JNK)?
Answer: no repression

Question: What about the “TPA-induced SRE luciferase activity” value [1] of the same compound?
Answer: repressed but to a lesser degree than AP-1
